Data reported in paper PMC12298827, “Subchronic Toxicities of Four Per- and Polyfluoroalkyl Substances (PFASs) by Oral Exposure in Sprague–Dawley Rats” (Toxics, 2025).
Converted amounts (≈) assume the structure as drawn. Like-named read-outs stand apart in the source and are kept apart here.

Tests used:
[1] = Parent chemical in rat plasma, 90-day study; format: in vivo; conditions: for concentration at 91 day: Sprague-Dawley, rat, plasma, oral; for Percentage of the dose in the plasma: 90 days
Method: Subchronic (90-day) studies were performed in accordance with current U.S. EPA’s Toxic Substances Control Act Good Laboratory Practice (GLP) Standards, with the following two general exceptions to the GLP guidelines: Analysis of the dose formulations was conducted according to RTI-approved Standard Operating Procedures, and corn oil (the vehicle) was not characterized (certificate of analysis from the vendor is available in the appendices to the final reports). Male and female Sprague–Dawley rats (five dose levels plus a control, n = 10/sex/dose group, corn oil vehicle dose volume of 3 mL/kg; oral gavage) were used in these studies, and the rats were euthanized on SD 91. The dose levels for PFHI were 0, 12.5, 25, 50, 100, and 200 mg/kg-day. The dose levels for MHFPK were 0, 18.8, 37.5, 75, 150, and 300 mg/kg-day. The dose levels for PFNAC were 0, 0.1, 0.3, 1.0, 3.0, and 10 mg/kg-day for male rats and 0, 0.3, 1.0, 3.0, 10, and 30 mg/kg-day for female rats. For CTFPA, the dose levels were 0, 1.9, 3.8. 7.5, 15, and 30 mg/kg-day for male rats and 0, 6.3, 12.5, 25, 50, and 100 mg/kg-day for female rats. For each PFAS, three batches of dosing solution were prepared. The time between the batch preparation of the dosing solutions ranged between 29 and 39 days. Blood samples were collected from all the rats at termination for serum chemistry, hematology, coagulation, and the analysis of the parent PFAS chemical in the plasma. In vivo data collection and further detail on the endpoints examined postmortem are described below.
(§1) On SD 1 of the 14-day study (~2 h post dosing), 0.2 mL of blood was collected via tail vein puncture in tubes containing K3EDTA and stored on wet ice. Prior to the scheduled euthanasia, blood (~1 mL) was collected from the jugular vein in tubes containing K3EDTA and stored on wet ice on SD 15, for the 14-day study, and SD 91, for the 90-day study. All the tubes were centrifuged at an ~1500 relative centrifugal force within 1 h of collection for 15 min at 5 ± 3 °C. The plasma was stored at −75 ± 15 °C until the analysis. PFNAC and PFHI were analyzed using a headspace GC–mass spectrometry (MS) method, as summarized in Table S3, and CTFPA was analyzed using an ultra-HPLC-MS method, as summarized in Table S4. The MHFPK samples were not analyzed because a method suitable for plasma was not available. The details concerning the preparation of the samples, method blanks, and matrix and QC standards for the analysis are available in the appendices to the study reports.

[2] = Solubility in dosing vehicles; format: physicochemical
Text: Based on solubility, corn oil (Welsh, Holme & Clark Inc., Newark, NJ, USA) was used as the vehicle for all four PFASs. Gas chromatography (GC) with flame ionization detection (FID) was used for the analysis of the PFNAC, PFHI, and MHFPK formulations, and a high-performance liquid chromatography (HPLC) method with ultraviolet spectroscopy was used for the CTFPA formulation. The details of the dosing solution analytical conditions are summarized in supplemental Tables S1 and S2. These analytical methods were developed specifically for these subchronic toxicity studies. […] Dosing solutions were prepared and replaced between at least every 29 days and no more than every 39 days.
PFNAC, PFHI, and MHFPK were soluble in corn oil up to 67, 200, and 100 mg/mL, respectively. As solubility in aqueous vehicles was 40 mg/mL or less for all three chemicals, corn oil was chosen as the vehicle. PFNAC was stable at the ambient temperature for 51 days at target concentrations of 0.2 and 10 mg/mL PFHI was stable in corn oil at ambient temperatures and target concentrations of 1 and 80 mg/mL for up to 70 days. MFHPK was stable in corn oil at room temperature for up to 44 days at target concentrations of 5 and 100 mg/mL. CTFPA was soluble in both deionized (DI) water and corn oil at 200 mg/mL when stored refrigerated overnight. […] Thus, corn oil was chosen as the vehicle for CTFPA. The stability of the CTFPA in the corn oil was evaluated for 8, 13, 15, 23, 35, and 42 days stored refrigerated in plastic bottles. CTFPA at 40 mg/mL was stable for up to 42 days. CTFPA at 0.6 mg/mL was stable for up to […] when refrigerated in plastic bottles but by 42 days had decreased to approximately 81%.

[3] = Parent chemical in rat plasma, 14-day study; format: in vivo; conditions: for concentration at 15 day: Sprague-Dawley, rat, plasma, oral; for Percentage of the dose in the plasma: 14 days
Method: Dose-range-finding (14-day) studies were conducted using male and female rats to establish dose levels for 90-day studies and identify potential target organ toxicities. Male and female rats (n = 5 sex/group, a control and three dose groups, corn oil vehicle dose volume of 5 mL/kg) were administered PFASs by oral gavage daily for 14 days and euthanized on study day (SD) 15. The dose levels for PFHI, CTFPA, and MHFPK were 0, 30, 100, and 300 mg/kg-day. The dose levels for PFNAC were 0, 10, 30, and 100 mg/kg-day. The in vivo data collected included BW, BWCs, FC, cage-side observations, and physical exams. Gross necropsies, relative and absolute organ weights, and clinical chemistry data were collected for all the groups. Macroscopic and microscopic pathology examinations were conducted for the control and high-dose groups initially; the other groups were examined if justified by experimental findings. Plasma samples were analyzed ~2 h post dosing on day 1 and at day 15 for the parent PFAS chemical.
as §1

[4] = male, Day 1 (2 hours post dosing), 30 mg/kg-day
[5] = male, Day 1 (2 hours post dosing), 100 mg/kg-day
[6] = male, Day 1 (2 hours post dosing), 300 mg/kg-day
[7] = corn oil, oil or lipid, read-out: Solubility in corn oil

## O=C(O)C(F)(Cl)C(F)(F)F (stereo not shown) [CTFPA, 2-Chloro-2,3,3,3-tetrafluoropropanoic acid]
[1]; female, Day 91, 6.3 mg/kg-day
  concentration at 91 day: 12600 ng/mL
[1]; female, Day 91, 12.5 mg/kg-day
  concentration at 91 day: 24700 ng/mL
[1]; female, Day 91, 25 mg/kg-day
  concentration at 91 day: 51000 ng/mL
[1]; female, Day 91, 50 mg/kg-day
  concentration at 91 day: 71500 ng/mL
[1]; female, Day 91, 100 mg/kg-day
  concentration at 91 day: 116000 ng/mL
[1]; male, Day 91, 1.9 mg/kg-day
  concentration at 91 day: 12600 ng/mL
[1]; male, Day 91, 3.8 mg/kg-day
  concentration at 91 day: 22300 ng/mL
[1]; male, Day 91, 7.5 mg/kg-day
  concentration at 91 day: 43300 ng/mL
[1]; male, Day 91, 15 mg/kg-day
  concentration at 91 day: 62100 ng/mL
[1]; male, Day 91, 30 mg/kg-day
  concentration at 91 day: 84400 ng/mL
[1]; female, 100 mg/kg-day
  Percentage of the dose in the plasma: 4.48 ± 1.63%
[1]; male, 30 mg/kg-day
  Percentage of the dose in the plasma: 10.82 ± 2.76%
[2]; DI water solution
  pH of the DI water solution: < 1
[2]; corn oil, stored refrigerated overnight, read-out: Solubility in corn oil
  solubility: 200 mg/mL (≈ 1110 mM)
[2]; deionized water, stored refrigerated overnight, read-out: Solubility in deionized (DI) water
  solubility: 200 mg/mL (≈ 1110 mM)
[3]; female, Day 15, 30 mg/kg-day
  concentration at 15 day: 27200 ng/mL
[3]; female, Day 15, 100 mg/kg-day
  concentration at 15 day: 45400 ng/mL
[3]; female, Day 15, 300 mg/kg-day
  concentration at 15 day: 123000 ng/mL
[3]; male, Day 15, 30 mg/kg-day
  concentration at 15 day: 49800 ng/mL
[3]; male, Day 15, 100 mg/kg-day
  concentration at 15 day: 99100 ng/mL
[3]; male, Day 15, 300 mg/kg-day
  concentration at 15 day: 120000 ng/mL
[3]; female, 100 mg/kg-day
  Percentage of the dose in the plasma: 1.75 ± 0.67%
[3]; female, Day 1, 30 mg/kg-day
  Parent chemical in plasma: 46,700 ± 10,000 ng/mL
[3]; female, Day 1, 100 mg/kg-day
  Parent chemical in plasma: 107,000 ± 30,400 ng/mL
[3]; female, Day 1, 300 mg/kg-day
  Parent chemical in plasma: 297,000 ± 56,500 ng/mL
[3]; male, 30 mg/kg-day
  Percentage of the dose in the plasma: 6.39 ± 2.03%
[3]; [4]
  Parent chemical in plasma: 48,400 ± 8430 ng/mL
[3]; [5]
  Parent chemical in plasma: 122,000 ± 43,800 ng/mL
[3]; [6]
  Parent chemical in plasma: 321,000 ± 60,600 ng/mL

## CC(=O)C(F)(F)C(F)(F)C(F)(F)F [MHFPK, Methyl heptafluoropropyl ketone]
[2]; [7]
  solubility: ≤ 100 mg/mL

## FC(F)(F)C(F)(F)C(F)(F)C(F)(F)CCI [PFHI, 1H,1H,2H,2H-Perfluorohexyl iodide]
[1]; female, Day 91, 50 mg/kg-day
  concentration at 91 day: 12.2 ± 9.91 ng/mL
[1]; female, Day 91, 100 mg/kg-day
  concentration at 91 day: 48.3 ± 22.9 ng/mL
[1]; female, Day 91, 200 mg/kg-day
  concentration at 91 day: 76.7 ± 24.1 ng/mL
[1]; male, Day 91, 200 mg/kg-day
  concentration at 91 day: 52.4 ± 24.1 ng/mL
[1]; female, Day 91, 12.5 mg/kg-day
  Parent chemical in plasma: BLOD (below the limit of detection—1.7 ng/mL)
[1]; female, Day 91, 25 mg/kg-day
  Parent chemical in plasma: <BLOD/≤LOQ
[1]; male, Day 91, 12.5 mg/kg-day
  Parent chemical in plasma: BLOD (below the limit of detection—1.7 ng/mL)
[1]; male, Day 91, 25 mg/kg-day
  Parent chemical in plasma: <BLOD/≤LOQ
[1]; male, Day 91, 50 mg/kg-day
  Parent chemical in plasma: 14.0 ± 6.21 ng/mL
[1]; male, Day 91, 100 mg/kg-day
  Parent chemical in plasma: 43.8 ± 7.53 ng/mL
[2]; [7]
  solubility: ≤ 200 mg/mL
[3]; 14-day study
  Lower plasma concentration for SD 15 compared to SD 1: 10- to 100 fold
[3]; female, Day 15, 300 mg/kg-day
  concentration at 15 day: 14.3 ± 7.12 ng/mL
[3]; male, Day 15, 100 mg/kg-day
  concentration at 15 day: 4.87 ± 1.93 ng/mL
[3]; male, Day 15, 300 mg/kg-day
  concentration at 15 day: 26.7 ± 8.79 ng/mL
[3]; female, Day 1, 30 mg/kg-day
  Parent chemical in plasma: 14.7 ± 8.21 ng/mL
[3]; female, Day 1, 100 mg/kg-day
  Parent chemical in plasma: 470 ± 427 ng/mL
[3]; female, Day 1, 300 mg/kg-day
  Parent chemical in plasma: 1070 ± 689 ng/mL
[3]; female, Day 15, 30 mg/kg-day
  Parent chemical in plasma: ND/BLOD
[3]; female, Day 15, 100 mg/kg-day
  Parent chemical in plasma: ≤LOQ
[3]; [4]
  Parent chemical in plasma: 159 ± 79.3 ng/mL
[3]; [5]
  Parent chemical in plasma: 333 ± 147 ng/mL
[3]; [6]
  Parent chemical in plasma: 2040 ± 1250 ng/mL
[3]; male, Day 15, 30 mg/kg-day
  Parent chemical in plasma: <BLOD/≤LOQ

## C=CC(=O)OCC(F)(F)C(F)(F)C(F)(F)C(F)(F)C(F)(F)C(F)(F)C(F)(F)C(F)F [PFNAC, 1H,1H,9H-Perfluorononyl acrylate]
[1]; female, Day 91, highest dose 30 mg/kg-day
  Parent chemical in plasma: Parent chemical not detected at the highest dose
[1]; male, Day 91, highest dose 10 mg/kg-day
  Parent chemical in plasma: Parent chemical not detected at the highest dose
[2]; [7]
  solubility: ≤ 67 mg/mL
[3]; female, Day 1, 100 mg/kg-day
  Parent chemical in plasma: Parent chemical not detected at the highest dose
[3]; female, Day 15, 100 mg/kg-day
  Parent chemical in plasma: Parent chemical not detected at the highest dose
[3]; [5]
  Parent chemical in plasma: Parent chemical not detected at the highest dose
[3]; male, Day 15, 100 mg/kg-day
  Parent chemical in plasma: Parent chemical not detected at the highest dose
